According to ChEMBL document CHEMBL3045443, “Mode for Herbicidal Action of 2-Amino-3-chloro-1,4-naphthoquinone (ACN)” (Biosci Biotechnol Biochem, 1994):

Key:
Format in all cases: functional
[1] = system: Scenedesmus acutus; assay: Herbicidal activity against Scenedesmus acutus assessed as ethane production per ml of packed-cell volume at 10^-6 M autotrophically for 20 hr by phytotoxicity assay (reference value: 0.28 nM/ml pcv)
[2] = system: Scenedesmus acutus; assay: Herbicidal activity against Scenedesmus acutus assessed as ethane production per ml of packed-cell volume at 10^-5 M autotrophically for 20 hr by phytotoxicity assay (reference value: 0.28 nM/ml pcv)
[3] = system: Scenedesmus acutus; assay: Herbicidal activity against Scenedesmus acutus assessed as protoporphyrin-IX content per ml of packed-cell volume at 10^-6 M autotrophically for 20 hr by phytotoxicity assay (reference value: 2 nM/ml pcv)
[4] = system: Scenedesmus acutus; assay: Herbicidal activity against Scenedesmus acutus assessed as protoporphyrin-IX content per ml of packed-cell volume at 10^-5 M autotrophically for 20 hr by phytotoxicity assay (reference value: 2 nM/ml pcv)
[5] = system: Scenedesmus acutus; assay: Herbicidal activity against Scenedesmus acutus assessed as chlorophyll content per ml of packed-cell volume at 10^-6 M autotrophically for 20 hr by phytotoxicity assay (reference value: 5.32 mg/ml pcv)
[6] = system: Scenedesmus acutus; assay: Herbicidal activity against Scenedesmus acutus assessed as chlorophyll content per ml of packed-cell volume at 10^-5 M autotrophically for 20 hr by phytotoxicity assay (reference value: 5.32 mg/ml pcv)
[7] = system: Scenedesmus acutus; assay: Herbicidal activity against Scenedesmus acutus assessed as packed-cell volume per ml of culture at 10^-6 M autotrophically for 20 hr by phytotoxicity assay (reference value: 6.6 ul pcv/ml)
[8] = system: Scenedesmus acutus; assay: Herbicidal activity against Scenedesmus acutus assessed as packed-cell volume per ml of culture at 10^-5 M autotrophically for 20 hr by phytotoxicity assay (reference value: 6.6 ul pcv/ml)
[9] = system: Scenedesmus acutus; assay: Herbicidal activity against Scenedesmus acutus assessed as ethane production per ml of packed-cell volume at 10^-4 M autotrophically for 20 hr by phytotoxicity assay (reference value: 0.28 nM/ml pcv)
[10] = system: Scenedesmus acutus; assay: Herbicidal activity against Scenedesmus acutus assessed as protoporphyrin-IX content per ml of packed-cell volume at 10^-4 M autotrophically for 20 hr by phytotoxicity assay (reference value: 2 nM/ml pcv)
[11] = system: Scenedesmus acutus; assay: Herbicidal activity against Scenedesmus acutus assessed as chlorophyll content per ml of packed-cell volume at 10^-6 M heterotrophically for 20 hr by phytotoxicity assay (reference value: 6.52 mg/ml pcv)
[12] = system: Scenedesmus acutus; assay: Herbicidal activity against Scenedesmus acutus assessed as chlorophyll content per ml of packed-cell volume at 10^-5 M heterotrophically for 20 hr by phytotoxicity assay (reference value: 6.52 mg/ml pcv)
[13] = system: Scenedesmus acutus; assay: Herbicidal activity against Scenedesmus acutus assessed as chlorophyll content per ml of packed-cell volume at 10^-4 M heterotrophically for 20 hr by phytotoxicity assay (reference value: 6.52 mg/ml pcv)
[14] = system: Scenedesmus acutus; assay: Herbicidal activity against Scenedesmus acutus assessed as growth measured as packed-cell volume per ml of culture at 10^-6 M heterotrophically for 20 hr by phytotoxicity assay (reference value: 1.5 ul pcv/ml)
[15] = system: Scenedesmus acutus; assay: Herbicidal activity against Scenedesmus acutus assessed as growth measured as packed-cell volume per ml of culture at 10^-5 M heterotrophically for 20 hr by phytotoxicity assay (reference value: 1.5 ul pcv/ml)
[16] = system: Scenedesmus acutus; assay: Herbicidal activity against Scenedesmus acutus assessed as growth measured as packed-cell volume per ml of culture at 10^-4 M heterotrophically for 20 hr by phytotoxicity assay (reference value: 1.5 ul pcv/ml)
[17] = system: Scenedesmus acutus; assay: Herbicidal activity against Scenedesmus acutus assessed as chlorophyll content per ml of packed-cell volume at 10^-4 M autotrophically for 20 hr by phytotoxicity assay (reference value: 5.32 mg/ml pcv)
[18] = system: Scenedesmus acutus; assay: Herbicidal activity against Scenedesmus acutus assessed as packed-cell volume per ml of culture at 10^-4 M autotrophically for 20 hr by phytotoxicity assay (reference value: 6.6 ul pcv/ml)
[19] = system: Scenedesmus acutus; assay: Herbicidal activity against Scenedesmus acutus assessed as chlorophyll content per ml of packed-cell volume at 10^-7 M heterotrophically for 20 hr by phytotoxicity assay (reference value: 6.52 mg/ml pcv)
[20] = system: Scenedesmus acutus; assay: Herbicidal activity against Scenedesmus acutus assessed as growth measured as packed-cell volume per ml of culture at 10^-7 M heterotrophically for 20 hr by phytotoxicity assay (reference value: 1.5 ul pcv/ml)

| SMILES | Activity [1] [nM] | Activity [2] [nM] | Activity [3] [nM] | Activity [4] [nM] | Activity [5] [mg] | Activity [6] [mg] | Activity [7] [µL] | Activity [8] [µL] | Activity [9] [nM] | Activity [10] [nM] | Activity [11] [mg] | Activity [12] [mg] | Activity [13] [mg] | Activity [14] [µL] | Activity [15] [µL] | Activity [16] [µL] | Activity [17] [mg] | Activity [18] [µL] | Activity [19] [mg] | Activity [20] [µL] |
| --- | --- | --- | --- | --- | --- | --- | --- | --- | --- | --- | --- | --- | --- | --- | --- | --- | --- | --- | --- | --- |
| CCC(C)c1cc([N+](=O)[O-])cc([N+](=O)[O-])c1O (stereo unspecified) [DINOSEB] | 0.18 | 0.34 | 1.5 | 2 | 5.5 | 5.91 | 6.6 | 5.3 | – | – | – | – | – | – | – | – | – | – | – | – |
| NC1=C(Cl)C(=O)c2ccccc2C1=O | 0.23 | 7.51 | 2 | 2 | 3.67 | 0.07 | 4.2 | 2.6 | 10.43 | 3.5 | 5.22 | 4.76 | 4.76 | 1.3 | 1.1 | 1.1 | 0 | 2.1 | – | – |
| O=C1C2=C(CCCC2)C(=O)N1c1ccc(Cl)cc1 [CHLOROPHTHALIUM] | 8.77 | – | 23.5 | – | 0.25 | 0.17 | 2.8 | 2.4 | – | – | 4.9 | 2.85 | – | 1.1 | 1 | – | – | – | 6.65 | 1.3 |
| N#Cc1cc(I)c(O)c(I)c1 [IOXYNIL] | 0.22 | 0.3 | 2.5 | 2 | 5.71 | 5.82 | 6.5 | 5.7 | – | – | – | – | – | – | – | – | – | – | – | – |
